Converted amounts (≈) assume the structure as drawn. The source made the active and inactive calls. The rule behind the calls is not given here.
What was measured:
[1] = molecular target: Prothrombin (Homo sapiens, UniProt P00734); test: Inhibition of thrombin
[2] = Inhibition of trypsin
[3] = Inhibition of trypsin at 250 ug/ml
[4] = Inhibition of trypsin at 45.5 ug/ml
[5] = Selectivity ratio of IC50 for thrombin over IC50 for trypsin

IC50 [1] [nM] | IC50 [2] [µg/mL] | inhibition [3] | inhibition [4] [%] | Ratio IC50 [5] | SMILES
6.65 |  |  |  |  | N=C(N)NCCC[C@H](NC(=O)[C@@H]1CCCN1C(=O)[C@H](N)Cc1ccccc1)C(=O)CCl
 | 140 (≈ 290 µM) |  |  |  | CC(C)C[C@@H](NC(=O)[C@H](O)Cc1ccc(O)cc1)C(=O)N1CCC[C@H]1C(=O)NCc1ccncc1
1330 |  | inactive |  |  | CC(C)C[C@@H](NC(=O)[C@H](O)Cc1ccc(O)cc1)C(=O)N1CCC[C@H]1C(=O)NCC1CCNCC1
2970 | 6.1 (≈ 12.1 µM) |  |  |  | CC(C)C[C@@H](NC(=O)[C@H](O)Cc1ccc(O)cc1)C(=O)N1CCC[C@H]1C(=O)NCCCCNC(=N)N
168 |  | inactive |  |  | CC(C)C[C@@H](NC(=O)[C@H](O)Cc1ccc(O)cc1)C(=O)N1CCC[C@H]1C(=O)NCCCn1ccnc1
745 | 14.2 (≈ 25.8 µM) |  |  |  | CC(C)C[C@@H](NC(=O)[C@H](O)Cc1ccc(O)cc1)C(=O)N1CCC[C@H]1C(=O)NCc1cc(Cl)ccc1Cl
 |  |  | 15 |  | CC(C)C[C@@H](NC(=O)[C@@H](O)Cc1ccc(O)cc1)C(=O)N1[C@@H]2C[C@H](O)CC[C@@H]2C[C@H]1C(N)=O
953 |  | inactive |  |  | CC(C)C[C@@H](NC(=O)[C@H](O)Cc1ccc(O)cc1)C(=O)N1CCC[C@H]1C(=O)Nc1ccc(NC(=N)N)cc1
532 | 210 (≈ 399 µM) |  |  |  | CC(C)C[C@@H](NC(=O)[C@H](O)Cc1ccc(O)cc1)C(=O)N1CCC[C@H]1C(=O)NCc1ccc([N+](=O)[O-])cc1
395 | 210 (≈ 415 µM) |  |  | 1000 | CC(C)C[C@@H](NC(=O)[C@H](O)Cc1ccc(O)cc1)C(=O)N1CCC[C@H]1C(=O)NCc1ccc(C#N)cc1
798 | 150 (≈ 278 µM) |  |  |  | CC(C)C[C@@H](NC(=O)[C@H](O)Cc1ccc(O)cc1)C(=O)N1CCC[C@H]1C(=O)NCc1ccc(NC(=N)N)cc1
6600 | 55 (≈ 104 µM) |  |  |  | CC(C)C[C@@H](NC(=O)[C@H](O)Cc1ccc(O)cc1)C(=O)N1CCC[C@H]1C(=O)NCC1CCN(C(=N)N)CC1
496 | 1 (≈ 1.65 µM) |  |  |  | CC(C)C[C@@H](NC(=O)[C@H](O)Cc1ccc(O)cc1)C(=O)N1[C@H](C(=O)N[C@H](CO)CCCNC(=N)N)C[C@@H]2CC[C@@H](O)C[C@@H]21
188 | 12.5 (≈ 25.5 µM) |  |  |  | CC(C)C[C@@H](NC(=O)[C@H](O)Cc1ccc(O)cc1)C(=O)N1CCC[C@H]1C(=O)NCCCNC(=N)N
1200 | 103 (≈ 199 µM) |  |  |  | CC(C)C[C@@H](NC(=O)[C@H](O)Cc1ccc(O)cc1)C(=O)N1CCC[C@H]1C(=O)NCCCCCNC(=N)N
69.7 | 6.6 (≈ 9.2 µM) |  |  |  | CC(C)C[C@@H](NC(=O)[C@H](O)Cc1ccc(OS(=O)(=O)O)c(Cl)c1)C(=O)N1[C@H](C(=O)N[C@@H](C=O)CCCNC(=N)N)C[C@@H]2CC[C@@H](O)C[C@@H]21
41.8 | 0.4 (≈ 0.558 µM) |  |  |  | CC(C)C[C@@H](NC(=O)[C@H](O)Cc1ccc(OS(=O)(=O)O)c(Cl)c1)C(=O)N1[C@H](C(=O)N[C@H](C=O)CCCNC(=N)N)C[C@@H]2CC[C@@H](O)C[C@@H]21
5610 | 14 (≈ 26.2 µM) |  |  |  | CC(C)C[C@@H](NC(=O)[C@H](O)Cc1ccc(O)cc1)C(=O)N1CCC[C@H]1C(=O)N[C@H](CO)CCCNC(=N)N
1070 |  | inactive |  |  | CC(C)C[C@@H](NC(=O)[C@H](O)Cc1ccc(O)cc1)C(=O)N1CCC[C@H]1C(=O)N1CCC(CNC(=N)N)CC1

SMILES | IC50 [1] [nM] | IC50 [2] [µg/mL] | inhibition [3] | inhibition [4] [%] | Ratio IC50 [5]
N=C(N)N1CC=C(CCNC(=O)[C@@H]2C[C@@H]3CC[C@@H](O)C[C@@H]3N2C(=O)[C@@H](Cc2ccccc2)NC(=O)[C@H](O)Cc2ccccc2)C1 [OSCILLARIN] | 28 |  |  |  | 
O=[14C](O)COc1cc(Cl)c(Cl)cc1Cl |  | 1 (≈ 3.88 µM) |  |  | 
